Source: article PMC5905120, “An innovative immunotherapeutic strategy for ovarian cancer: CLEC10A and glycomimetic peptides” (Journal for Immunotherapy of Cancer, 2018)
Bridges are numbered along the chain shown (N, C = ends). Roman numbers before positions name the chains, in order. Where no end group is shown, it is not given here.

Assays:
[1] = test system: peritoneal low FSc and low SSc cells; experiment: Peritoneal small-cell population in 4T1 tumor-bearing Balb/c mice; format: in vivo, mouse (Balb/c); conditions: 1 nmole/g
Experimental: After tumors had reached a volume of at least 500 mm^3, the peritoneal population of low FSc and low SSc cells was minimal (Fig. S2a). […] We conclude that this population is possibly progenitor cells and that additional treatments would lead to maturation of this population, as observed with healthy animals.
Fig. S2. Increase in the population of small cells in the peritoneal cavity of Balb/c mice bearing tumors of breast 4T1 cancer cell line. svL4 (1 nmole/g) was injected on day 0 and day 2, with analysis 24 h after each injection. a) Pseudocolor scatter plots of peritoneal cells from untreated or treated mice on day 3, 24 h after the second injection. […] Untreated animals, blue; treated animals, orange. Peritoneal cells from 3 animals were pooled and analyzed in triplicate. c) Histograms of normalized SSc vs. FSc for samples of peritoneal cells from Balb/c mice on day 3, from Fig. S2b, i.e., 24 h after the second injection of svL4. Blue trace, untreated animals; red trace, svL4-treated animals.

human CLEC10A = biological target: T1, human CLEC10A (Homo sapiens, UniProt Q8IUN9); experiment: Solid-phase binding to recombinant human CLEC10A; conditions: Fig. 2a, representative of 3 independent experiments
T1 construct: purchased R&D Systems
T1 sequence (Q8IUN9 61-316 limits assumed): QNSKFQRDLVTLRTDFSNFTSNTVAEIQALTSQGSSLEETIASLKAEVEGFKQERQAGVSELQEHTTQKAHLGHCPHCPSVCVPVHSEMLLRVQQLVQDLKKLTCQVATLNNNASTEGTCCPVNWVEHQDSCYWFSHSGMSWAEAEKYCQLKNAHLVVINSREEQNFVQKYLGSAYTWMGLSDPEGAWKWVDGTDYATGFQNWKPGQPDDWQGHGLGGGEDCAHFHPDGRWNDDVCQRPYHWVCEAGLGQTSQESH
Experimental: Solid-phase binding assays were performed with streptavidin-, protein A/G-, or Nickel-coated microtiter plates (Pierce). His-tagged or Fc-fusion recombinant receptors (R&D Systems, Minneapolis, MN) were reconstituted in PBS. Sufficient receptors were added to wells to saturate the coating. His-tagged receptors were added to each well at a 5-fold excess over the stated capacity of the Ni coating to minimize non-specific binding of the peptide. Wells were washed three times with binding buffer (25 mM Tris HCl, pH 7.4, 150 mM NaCl, 0.05% Tween-20) to remove unbound receptor and 50 μL of 2 μM biotinylated peptide in binding buffer were added and allowed to incubate for 1 h. The wells were washed four times with binding buffer and then incubated with 50 μL of 1 μg/mL streptavidin conjugated with peroxidase (Sigma-Aldrich) for 1 h. The wells were washed five times with binding buffer and 50 μL of peroxidase substrate (1-Step™ Ultra TMB, Pierce) were added. After several minutes to allow color development, the reaction was stopped with 50 μL 1 M H3PO4 and absorbance was measured at 450 nm. Bound streptavidin was quantitated by the specific activity of peroxidase (absorbance/ng protein conjugate/min) under the conditions of the assay.
Solid-phase binding assays were performed with recombinant human receptors. Three variations of the binding assay were used in this study, all of which allowed the arms of the tetravalent peptide to have full flexibility. (i) Biotinylated peptide was bound in microtiter wells coated with streptavidin and incubated with recombinant human receptors. After extensive washing, the bound receptor was measured by peroxidase conjugated to a receptor-specific antibody. (ii) The extracellular domains of receptors, which were fused with the Fc domain of immunoglobulin IgG, were bound in wells coated with protein A/G. Biotinylated peptide was incubated with the receptors and, after extensive washing, bound peptide was measured with streptavidin conjugated with peroxidase. Or (iii), recombinant receptors with a poly-His tag were bound to Nickel-coated wells and incubated with biotinylated peptide. svL4 and sv6D contain His residues (see Table 1) and can bind to the Ni coating, which was minimized by adding sufficient poly-His-tagged receptor to saturate the Ni coating.

[2] = test system: peritoneal cells of C57BL/6 mice; experiment: Peritoneal immune cell populations by flow cytometry, C57BL/6 mice; format: in vivo, mouse (C57BL/6)
Experimental: Healthy C57BL/6 male mice, 10 weeks old, were injected subcutaneously with peptides on alternate days. Peritoneal cells were isolated from mice 24 h after dosing by injecting ice cold PBS (containing 3% FBS) into the peritoneal cavity, gently massaging the abdomen, and then collecting the fluid, which was transferred into K2EDTA-treated tubes for evaluation of specific biomarkers. Cells from three mice in each group were pooled, counted and divided among FACS tubes (1 × 10^6 cells per tube). Cells were washed once in PBS containing 3% FBS, then stained with 0.25 to 1 μg of fluorescently conjugated antibody per 10^6 cells in 100 μL of buffer as recommended by the manufacturer (Table 2).
Cells were incubated with the antibodies for 30 min at 4 °C in the dark. Following staining, the cells were washed two times with PBS/3% FBS and immediately analyzed with a MACSQuant flow cytometer (Miltenyi Biotech, Inc., San Diego, CA). Compensation was performed using single stain tubes for each color present in the analysis as well as an unstained control sample. Collection of flow cytometric data and analysis with FlowJo software, version 10.0.6 (FlowJo, LLC, Ashland, OR) were performed by Biomodels LLC (Watertown, MA).
To examine whether increases occurred in mature immune cells, peritoneal cells from Balb/c and C57BL/6 mice were analyzed by flow cytometry after cells were stained with the markers listed in Table 2. […] To explore this observation more extensively, svL4 or sv6D was injected into C57BL/6 mice on day 0, 2 or 4. Peritoneal cells were examined by flow cytometry 24 h after each injection. Shown in Fig. 5 are results expressed as cell counts for F4/80 CD11b CD86 (mature, active macrophages); CD11c (DCs); CD11c CD 86 (activated DCs); CD4 CD69 (activated T cells); CD8 CD69 (activated cytotoxic T cells); NK1.1 CD3^+ CD69 (activated NKT cells); NK1.1 CD3^− CD69 (activated NK cells); CD19 (B cells); and CD19 CD73 CD80 CD273 (memory B cells). The numbers of these mature, activated cells continued to increase with each injection.
Fig. 5 Expansion of peritoneal cells in C57BL/6 mice. Mice were injected subcutaneously at a dose of 1 nmole/g body weight of svL4, sv6D or svC1. Cells in each population recovered in a peritoneal lavage are expressed as cell counts (in thousands). Cells from three mice in each treatment group were pooled for analysis. The number of cells in each population was normalized to the average recovery of total cells from all groups. For each cell type, the left-hand, middle and right-hand set of bars represent samples from mice treated with svL4, sv6D or svC1, respectively. Mice were injected on days 0, 2 and 4, and cells were collected 24 h after each injection. Day 1, open bar; day 3, grey bar; day 5, black bar. Populations that express activation markers are indicated by an asterisk

I: VQATQSNQHTPRGGGSKK-NH2 / II: VQATQSNQHTPRGGGSK / III: VQATQSNQHTPRGGGS / IV: VQATQSNQHTPRGGGS (amide I:17-IV:C, I:18-II:C, II:17-III:C) [svL4]
size of small-cell population ([1]; 24 h after first injection): not changed significantly | CD3^+ fraction of small cells ([1]; after second injection): 0.5% | CD19^+ fraction of small cells ([1]; after second injection): about 3% | size of small-cell population ([1]; within 24 h after second injection): dramatic increase | binding to CLEC10A (human CLEC10A): bound to CLEC10A | decrease of CD90.2^+ cells as small-cell population increased ([2]; 0.05 nmole/g svL4): more than 50% | response of CD19^+ B cells vs. sv6D ([2]; 1 nmole/g s.c. on days 0, 2, 4, Fig. 5): responded more strongly to svL4 | increase in mature immune cells ([2]; 1 nmole/g s.c., single vs. second injection, 24 h): a significant increase occurred only after the second injection | Lin/CD90.2 status of small cells ([2]; 0.1 or 0.5 nmole/g svL4): nearly all cells were Lin^Neg and CD90.2^Neg | increase in mature immune cells ([2]; within 24 h after an injection (data not shown)): Essentially no increase | small cells (low FSc, low SSc) ([2]; within 24 h after injection, healthy C57BL/6, Fig. S1a): several-fold increase
